Here are results for 28 compounds from PubChem BioAssay (NCI).

What all share (assay): NCI tumour cell line growth inhibition, 48 h
The subject of assay [1] is A498 renal.
For assay [2], the system named is DU-145 prostate.
Assay [3] relates to LOX IMVI melanoma.
In assay [4] the test system is MOLT-4 leukemia.
Assay [5] relates to NCI-H23 lung.
Assay [6] concerns NCI-H522 lung.
Assay [7] has as its system NCI/ADR-RES ovarian.
Assay [8] concerns SN12C renal.
Assay [9] deals with SNB-75 CNS.
The test system of assay [10] is SR leukemia.

The structures appear in SMILES notation. “And” between values parts separate entries of the source, which are not always exact repeats. Equal entries are not always repeated.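 Tested at 5 concentrations; 48 h exposure; 96-well plates; endpoints linearly interpolated, else capped at highest concentration. GI50 marks 50% less growth. TGI: concentration producing complete growth inhibition.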 Where a SMILES comes first, the peptide text is derived from it. The star is where a group is joined. Boc = CC(C)(C)OC(=O)*

For the compound `C=C1C(=O)O[C@H]2C/C(C)=C/CC/C(C)=C/CC[C@@](C)(O)[C@@H](I)C[C@@H]12`, the TGI in assay [1] was 32 µM; in [2], 22.2 µM; in [3] it was 3.31 µM; in [4], greater than 26.2 µM; in assay [5], 2.43 µM; in [6], 14.4 µM. For the same compound, the TGI in assay [7] was found to be 24.7 µM; in [8], 18.1 µM; in [9], 25.1 µM; in assay [10] it was 11.8 µM.
Regarding `Cc1cc(N=Cc2c(CO)cnc(C)c2O)c(N=Cc2c(CO)cnc(C)c2O)cc1C.[Zn]`, the TGI in assay [1], in assay [2], in [3], in assay [4], in assay [6] and in [7] was greater than 100 µM throughout. Moreover, the TGI in assay [8], in assay [9] and in [10] was greater than 100 µM each time. Moreover, the GI50 in assay [10] is greater than 100 µM.
For `S=c1nc2[nH]c3ccc(Br)cc3c2n[nH]1`, the TGI in assay [1] is greater than 100 µM; in assay [2], greater than 100 µM; in [3], 79.7 µM; in [4], greater than 100 µM; in assay [6], greater than 100 µM; in assay [7], greater than 100 µM. Besides, the TGI in [8] was greater than 100 µM; in [9], 94.9 µM; in assay [10], 69.3 µM.
As for `Cc1cccc2nc3cccc(C(=O)NCCC[N+](C)(CCCNC(=O)c4cccc5nc6cccc(C)c6nc45)Cc4c([N+](=O)[O-])ncn4C)c3nc12`, the GI50 in assay [1] was greater than 1100 µM; in assay [2] it was 20.8 µM; in assay [4], 8.38 µM; in assay [5], 370 µM; in assay [6], 16.2 µM; in assay [7] it was 131 µM. In addition, the GI50 in assay [8] is 150 µM. For the same compound, the TGI in assay [1] is greater than 1100 µM; in assay [2], greater than 1100 µM; in [3], 18.8 µM; in assay [5], greater than 1100 µM; in [6] it was greater than 1100 µM; in assay [7], greater than 1100 µM. For the same compound, the TGI in assay [8], in assay [9] and in assay [10] was greater than 1100 µM each time.
With `COC(=O)C(Cc1c[nH]c2ccccc12)NC(=O)C(Cc1c[nH]c2ccccc12)NC(=O)C(Cc1c[nH]c2ccccc12)NC(=O)C(Cc1c[nH]c2ccccc12)NC(=O)OC(C)(C)C` (stereo not drawn) (Boc-WWWW-OMe; configuration not given here), the TGI was greater than 100 µM in [2]; 28 µM in [3]; 20.7 µM in assay [4]; 92.3 µM in [5]; greater than 100 µM in [6]; greater than 100 µM in [8]. In addition, the values for the TGI in assay [9] and in [10] were greater than 100 µM and 56.6 µM, respectively.
With `CC(=Nc1c2ccccc2nc2ccccc12)N(C)C`, the TGI in assay [2] was greater than 100 µM; in assay [3] it was 26.7 µM; in assay [4] it was 44.8 µM; in [5], 41.1 µM; in [6] it was 25.5 µM; in assay [7] it was 54.8 µM. The TGI in assay [9] amounted to 71 µM; in [10], 23.3 µM.
Take `NC(c1ccccc1)(C(F)(F)F)P1(=O)OC(=O)c2ccccc2O1` (stereo not drawn): the TGI in assay [1], in [2], in assay [4], in [5], in [7] and in assay [8] was greater than 100 µM each time. For the same compound, the TGI in assay [9] and in assay [10] was greater than 100 µM throughout.
Consider `C[C@H](CC[C@@H](O)C(C)(C)O)[C@H]1CC[C@@]2(C)[C@@H]3CC=C4[C@@H](CC[C@H](O)C4(C)C)[C@]3(C)C(=O)C[C@]12C`, for which the TGI in assay [1], in assay [2], in assay [3], in assay [4], in assay [5] and in assay [6] was greater than 50 µM in each case. The TGI in assay [7], in [8] and in assay [10] was greater than 50 µM in each case.
For `COC(=O)c1ccccc1C#CCCCOS(C)(=O)=O`, the TGI in [1], in assay [2], in [3], in assay [4], in [5] and in assay [7] was greater than 10 µM in each case. The TGI in assay [8] and in [10] was greater than 10 µM in each case.
`CO/C(=N\N=C\c1ccc(Cl)cc1Cl)c1ccncc1`: the TGI in assay [2], in [3], in assay [4], in [5], in assay [6] and in assay [7] was greater than 10 µM in each case. Besides, the TGI in assay [8] and in assay [10] was greater than 10 µM in each case.
As to `O=C(CN1CCCCC1)c1ccc2c(c1)Sc1ccccc1O2`, the TGI in assay [1] is 39.3 µM; in [2] it was 49.3 µM; in assay [3] it was 40.3 µM; in assay [4] it was greater than 100 µM; in assay [5], 27.9 µM; in assay [7], 35 µM. Moreover, the TGI in assay [8] turned out to be 42.7 µM; in [9], 24.2 µM; in assay [10], 75.1 µM.
Take `CC(=NCCN(CCN=C(C)c1c(O)cc(C)oc1=O)CCN=C(C)c1c(O)cc(C)oc1=O)c1c(O)cc(C)oc1=O`: the TGI in assay [4], in [6], in assay [7], in assay [8], in [9] and in assay [10] was greater than 100 µM each time.
With `CN(C)CCCNc1c2ccccc2nc2cccc([N+](=O)[O-])c12`, the TGI in [1] was 0.00198 µM; in assay [2], 0.0131 µM; in [4], 0.052 µM; in [6], less than 0.001 µM; in [7] it was 0.186 µM; in [8], 0.0137 µM and 0.0343 µM. Also, in [10], the TGI is 0.0576 µM. In addition, in assay [3], the GI50 is 0.019 µM.
With `COc1ccc(C(=C(I)c2ccccc2)c2ccc(OC)cc2)cc1`, the TGI in assay [2], in assay [3], in assay [4], in assay [5], in assay [6] and in [7] was greater than 100 µM in each case. For the same compound, the TGI in assay [8] and in assay [10] was greater than 100 µM throughout.
As for `CCCC(CC)c1c(O)c(O)c(C(CC)CCC)c(C(CC)CCC)c1C(CC)CCC` (stereo not drawn), the TGI in [1], in assay [2], in [3], in assay [5], in assay [6] and in assay [7] was greater than 10 µM throughout. Also, the TGI in [8] and in assay [10] was greater than 10 µM throughout.
With `O=c1[nH]c(=O)n(COCc2ccccc2)c2ccc([N+](=O)[O-])cc12`, the TGI in [1], in assay [2], in [3], in [4], in [7] and in assay [8] was greater than 100 µM in each case. The TGI in assay [9] and in assay [10] was greater than 100 µM throughout.
Take `O=C(NCCCCNCCCNC(=O)c1ccccc1)c1ccccc1`: the TGI in assay [1], in assay [2], in assay [4], in assay [5], in assay [6] and in assay [7] was greater than 100 µM in each case. The TGI in assay [8], in assay [9] and in assay [10] was greater than 100 µM throughout.
As for `N#CC(C#N)=Cc1c(O)ccc2ccccc12`, the TGI in assay [1] came out at 31.1 µM; in [2], 27.8 µM; in assay [3], 26.6 µM; in assay [5], 26.9 µM; in assay [6], 29.2 µM; in assay [7] it was 64.7 µM. Moreover, the values for the TGI in assay [8], in [9] and in assay [10] were 27.3 µM, 17.9 µM and 13.6 µM, respectively.
As to `O=c1[nH]c2ccccc2nc1/C=C(\O)C(F)F`, the TGI in [1], in assay [2], in assay [3], in [4], in assay [5] and in [6] was greater than 100 µM throughout. The TGI in [7], in assay [8] and in assay [10] was greater than 100 µM in each case.
Turning to `CC(C)(C)n1c(=O)n(C(=O)C(Cl)(Cl)Cl)n(C(=O)C(Cl)(Cl)Cl)c1=O`, the TGI in [2], in assay [3], in [4], in [5], in [6] and in assay [7] was greater than 100 µM each time. For the same compound, the TGI in [8] and in [10] was greater than 100 µM throughout.
As for `Nc1ccccc1NC(=O)CCCCCCC(=O)Nc1ccc2c(c1)/C(=C/c1ccc[nH]1)C(=O)N2`, the GI50 in assay [1] is 3.17 µM; in assay [2], 7.06 µM; in [3], greater than 100 µM; in [4] it was 2.9 µM; in [5] it was greater than 100 µM; in [6], 2.78 µM. Moreover, the values for the GI50 in assay [7], in [8] and in [10] were greater than 100 µM, 4.68 µM and 4.64 µM, respectively. For the same compound, the TGI in [1], in [2], in assay [3], in assay [4], in assay [5] and in assay [6] was greater than 100 µM throughout. Further, the TGI in assay [7], in assay [8] and in assay [10] was greater than 100 µM throughout.
With `CC(C)[C@H]1NC(=O)[C@H]2N=C(O[C@@H]2C)[C@@H]2CCCN2C(=O)[C@H](Cc2ccccc2)NC(=O)[C@@H]2CSC(=N2)[C@@H](Cc2ccccc2)NC(=O)[C@@H]2CSC1=N2`, the TGI in assay [1], in assay [2], in assay [3], in assay [4], in assay [5] and in assay [6] was greater than 100 µM in each case. For the same compound, the TGI in [7], in assay [8] and in assay [10] was greater than 100 µM in each case.
Regarding `COc1ccc(-c2nc(-c3cc4ccccc4oc3=O)cs2)cc1`, the TGI in assay [2], in assay [3], in assay [4], in [6], in [7] and in [8] was greater than 100 µM in each case. The TGI in assay [9] and in assay [10] was greater than 100 µM in each case.
For `O=C1CSC2=NCC3(NN12)c1ccccc1-c1ccccc13`, the TGI in [2], in assay [3], in assay [4], in [5], in [6] and in assay [7] was greater than 10 µM throughout. Further, the TGI in assay [8], in assay [9] and in assay [10] was greater than 10 µM in each case.
Turning to `O=C(c1ccccc1)c1c(C(F)(F)F)n([O-])c2cc(Cl)c(Cl)cc2[n+]1=O`, the TGI in assay [2] was found to be 0.985 µM; in assay [3] it was 2.46 µM; in assay [4], 1.56 µM; in [5] it was 1.11 µM; in assay [6], 1.08 µM; in assay [7] it was 6.36 µM. Moreover, the values for the TGI in [8], in assay [9] and in assay [10] were 1.87 µM, 2.58 µM and 0.724 µM, respectively.
Consider `Cc1ccc(NC(=S)Nc2c(C)n(C)n(-c3ccccc3)c2=O)cc1`, for which the TGI in assay [1], in assay [2], in assay [3], in assay [4], in assay [5] and in assay [6] was greater than 100 µM each time. Besides, the TGI in [7], in assay [9] and in assay [10] was greater than 100 µM each time.
In the case of `CCN(CC)C(=S)N/N=C/c1ccccn1`, the TGI in [2] was 1.27 µM; in assay [3], 0.27 µM; in assay [4], greater than 100 µM; in [6] it was 1.53 µM; in [7], 0.692 µM; in assay [9], 44.8 µM. The TGI in assay [10] is greater than 54.8 µM.
Turning to `O=C(NC1(C(=O)NNc2nnc(-c3ccccc3)c(-c3ccccc3)n2)C(c2ccccc2)C(c2ccccc2)=NN1c1ccccc1)c1ccccc1` (stereo not drawn), the TGI in assay [1], in [2], in [4], in assay [5], in assay [6] and in assay [7] was greater than 100 µM each time. Further, the TGI in assay [9] and in [10] was greater than 100 µM throughout.
